Source: patent US10065941B2, “Aminotriazine derivative and pharmaceutical composition comprising the same” (Shionogi & Co., Ltd., priority 2013, dated 2018)

Target: human P2X3 receptor (Homo sapiens (Human), UniProt P56373)
Test: Evaluation of human P2X3 receptor inhibitory activity (Test Example 1)
Type: cell-based
Conditions: C6BU-1 cell transfected with human P2X3 receptor gene, FLIPR 384
Procedure: Stably expressing cell line (C6BU-1 cell transfected with human P2X3 receptor gene (GenBank accession number Y07683) was used. The cells were seeded in a 384-well PDL-coated microtiter plate at a concentration of 3000 cells/well and cultured in the medium (8.3% fetal bovine serum, 8.3% horse serum, and 1% antibiotic and antifungal in DMEM) for one day at 37° C. under 5% carbon dioxide atmosphere. The medium was replaced with 4 μM Fluo-3-AM solution (20 mM HEPES, 137 mM NaCl, 2.7 mM KCl, 0.9 mM MgCl2, 5.0 mM CaCl2, 5.6 mM D-glucose, 2.5 mM probenecid, 0.5% BSA, and 0.04% Pluronic F-127, pH 7.5) and incubated at 37° C. under 5% dioxide carbon atmosphere for one hour. The plate was washed with washing buffer (20 mM HEPES, 137 mM NaCl, 2.7 mM KCl, 0.9 mM MgCl2, 5.0 mM CaCl2, 5.6 mM D-glucose, 2.5 mM probenecid, pH7.5), and each well was added with 20 μL of the washing buffer. The plate was placed in High-Throughput Screening System FLIPR 384 (Molecular Device Co.). Measurement of fluorescence intensity by FLIPR 384 was started, and 20 μL of DMSO solutions containing different concentrations of the test compound as prepared by dilution with dilution buffer (20 mM HEPES, 137 mM NaCl, 2.7 mM KCl, 0.9 mM MgCl2, 5.0 mM CaCl2, 5.6 mM D-glucose, 2.5 mM probenecid, 0.1% Pluronic F-127, pH7.5) were dispensed to each well through the built-in automatic dispenser. Five minutes after, 150 nM ATP solution (25 μL) prepared by dilution with the dilution buffer was dispensed through the built-in automatic dispenser, and the measurement of fluorescence intensity was continued for 4 min. For each well, the specific maximum fluorescence intensity was calculated as the ratio of the maximum fluorescence intensity after addition of the ATP solution to the fluorescence intensity at the starting of the measurement. […] The specific maximum fluorescence intensity and IC50 were calculated using Spotfire (Science & Technology Systems, Inc.)

Chain of human P2X3 receptor (P56373 whole entry): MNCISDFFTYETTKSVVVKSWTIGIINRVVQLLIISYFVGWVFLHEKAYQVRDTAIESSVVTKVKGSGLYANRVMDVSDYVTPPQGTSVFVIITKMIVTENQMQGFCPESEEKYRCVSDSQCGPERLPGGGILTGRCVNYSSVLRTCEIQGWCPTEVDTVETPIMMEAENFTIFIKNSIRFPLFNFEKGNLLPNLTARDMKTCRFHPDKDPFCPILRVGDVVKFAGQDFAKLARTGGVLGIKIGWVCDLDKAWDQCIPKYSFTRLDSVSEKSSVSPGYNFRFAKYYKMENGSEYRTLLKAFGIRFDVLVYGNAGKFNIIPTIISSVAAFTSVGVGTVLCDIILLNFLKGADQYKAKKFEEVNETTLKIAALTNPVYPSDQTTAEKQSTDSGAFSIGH

| Compound | IC50 [nM] |
| --- | --- |
| Cc1cccnc1Oc1ccc(/N=c2\[nH]c(=O)n(C[C@H](C)C(=O)O)c(=O)n2Cc2ccc(Cl)cc2)cc1 [Compound I-077] | 10 |
| COC(=O)[C@H](C)[C@H](C)n1c(=O)[nH]/c(=N\c2ccc(Oc3cc(C#N)ccn3)cc2)n(Cc2ccc(Cl)cc2)c1=O [Compound I-075] | 21 |
| COC(=O)C(C)(C)Cn1c(=O)[nH]/c(=N\c2ccc(Oc3cccnn3)cc2)n(Cc2ccc(Cl)cc2)c1=O [Compound R-148] | 5 |
| COc1cc(Oc2ccc(/N=c3\[nH]c(=O)n(C[C@H](C)C(=O)O)c(=O)n3Cc3ccc(Cl)cc3)cc2)ncn1 [Compound R-050] | 14 |
| C[C@@H](Cn1c(=O)[nH]/c(=N\c2ccc(Oc3cncc(Cl)c3)cc2)n(Cc2ccc(Cl)cc2)c1=O)C(=O)O [Compound R-081] | 5 |
| Cc1ccc(Cn2c(=O)n([C@@H](C)[C@@H](C)C(=O)O)c(=O)[nH]/c2=N\c2ccc(Oc3ncc(C)s3)cc2)cc1 [Compound R-217] | 8 |
| Cc1cc(/N=c2\[nH]c(=O)n(C[C@H](C)C(=O)O)c(=O)n2Cc2ccc(Cl)cc2)ccc1Oc1cncc(F)c1 [Compound R-116] | 5 |
| COC(=O)C[C@@H](C)n1c(=O)[nH]/c(=N\c2ccc(Oc3cccc(F)n3)cc2)n(Cc2ccc(Cl)cc2)c1=O [Compound I-158] | 6 |
| CC(C)(Cn1c(=O)[nH]/c(=N\c2ccc(Oc3ncccc3C#N)cc2)n(Cc2ccc(Cl)cc2)c1=O)C(=O)O [Compound I-048] | 30 |
| Cc1ccc(Cn2c(=O)n([C@@H](C)[C@@H](C)C(=O)O)c(=O)[nH]/c2=N\c2ccc(Oc3ccc(C)cn3)cc2)cc1 [Compound I-113] | 5 |
| COC(=O)[C@@H](C)Cn1c(=O)[nH]/c(=N\c2ccc(N3CCCCC3)c(C)c2)n(Cc2ccc(Cl)cc2)c1=O [Compound R-138] | 78 |
| C[C@@H](Cn1c(=O)[nH]/c(=N\c2ccc(Oc3ccc(F)cn3)cc2)n(Cc2ccc(F)cc2F)c1=O)C(=O)O [Compound I-028] | 20 |
| CC(C)(Cn1c(=O)[nH]/c(=N\c2ccc(Oc3ncns3)cc2)n(Cc2ccc(Cl)cc2)c1=O)C(=O)O [Compound R-163] | 14 |
| C[C@@H](Cn1c(=O)[nH]/c(=N\c2ccc(Oc3ccc(C(F)(F)F)nn3)cc2)n(Cc2ccc(Cl)cc2)c1=O)C(=O)O [Compound R-030] | 8 |
| COC(=O)[C@@H](C)Cn1c(=O)[nH]/c(=N\c2ccc(Oc3ccccn3)cc2)n(Cc2ccc(Cl)s2)c1=O [Compound I-271] | 10 |
| CCOC(=O)[C@H]1C[C@H](n2c(=O)[nH]/c(=N\c3ccc(Oc4ccc(F)cn4)cc3)n(Cc3ccc(C)cc3)c2=O)C1 [Compound I-176] | 7 |
| O=c1[nH]/c(=N\c2ccc(Oc3ccccn3)cc2)n(Cc2ccc(Cl)cc2)c(=O)n1CC(O)(CO)CO [Compound R-255, 1-(4-chlorobenzyl)-3-(2-hydroxymethyl-2,3-dihydroxypropyl)-6-[4-(2-pyridyloxy)phenylimino]-1,3,5-triazinane-2,4-dione] | 5 |
| C[C@@H](Cn1c(=O)[nH]/c(=N\c2ccc(Oc3ncccc3F)cc2)n(Cc2ccc(C(F)F)cc2)c1=O)C(=O)O [Compound I-169] | 21 |
| COC(=O)C(C)(C)Cn1c(=O)[nH]/c(=N\c2ccc(Oc3ncns3)cc2)n(Cc2ccc(Cl)cc2)c1=O [Compound R-136] | 6 |
| C[C@@H](Cn1c(=O)[nH]/c(=N\c2ccc(Oc3cc(F)nc(F)c3)cc2)n(Cc2ccc(Cl)cc2)c1=O)C(=O)O [Compound R-057] | 6 |
| COC(=O)[C@@H](C)Cn1c(=O)[nH]/c(=N\c2ccc(Oc3ccccn3)c(C)c2)n(Cc2ccc(Cl)cc2)c1=O [Compound I-223] | 11 |
| C[C@@H](C(=O)O)[C@H](C)n1c(=O)[nH]/c(=N\c2ccc(Oc3cc(Cl)ccn3)cc2)n(Cc2ccc(Cl)cc2)c1=O [Compound I-091] | 10 |
| COC(=O)C(C)(C)Cn1c(=O)[nH]/c(=N\c2ccc(Oc3ccc(Cl)cn3)cc2)n(Cc2ccc(C)cc2)c1=O [Compound I-098] | 7 |
| COC(=O)[C@H](Cn1c(=O)[nH]/c(=N\c2ccc(Oc3cccc(F)n3)cc2)n(Cc2ccc(Cl)cc2)c1=O)OC [Compound I-122] | 4 |
| O=c1[nH]/c(=N\c2ccc(Oc3ncccc3F)cc2)n(Cc2ccc(Cl)cc2)c(=O)n1CC1(CO)COC1 [Compound R-083] | 7 |
| C[C@@H](C(=O)O)[C@H](C)n1c(=O)[nH]/c(=N\c2ccc(Oc3cc(C#N)ccn3)cc2)n(Cc2ccc(Cl)cc2)c1=O [Compound I-134] | 7 |

| Compound | IC50 [nM] |
| --- | --- |
| C[C@H](CC(=O)O)n1c(=O)[nH]/c(=N\c2ccc(Oc3ncccc3F)cc2)n(Cc2ccc(Cl)cc2)c1=O [Compound I-166] | 13 |
| Cc1cc(/N=c2\[nH]c(=O)n(C[C@H](C)C(=O)O)c(=O)n2Cc2ccc(Cl)cc2)ccc1Oc1cnccn1 [Compound R-130] | 9 |
| Cc1ccc(Cn2c(=O)n(C[C@H](C)C(=O)O)c(=O)[nH]/c2=N\c2ccc(Oc3ccc(CF)cn3)cc2)cc1 [Compound I-242] | 8 |
| COC(=O)[C@H](C)[C@H](C)n1c(=O)[nH]/c(=N\c2ccc(Oc3ncc(C)s3)cc2)n(Cc2ccc(C)cc2)c1=O [Compound R-213] | 12 |
| C[C@@H](Cn1c(=O)[nH]/c(=N\c2ccc(Oc3ccc(F)cn3)cc2)n(Cc2ccc(C(F)F)cc2)c1=O)C(=O)O [Compound I-167] | 19 |
| CC(C)(Cn1c(=O)[nH]/c(=N\c2ccc(Oc3cnc(C(F)(F)F)cn3)cc2)n(Cc2ccc(Cl)cc2)c1=O)C(=O)O [Compound R-176] | 7 |
| COC(=O)CCn1c(=O)[nH]/c(=N\c2ccc(Oc3ccccn3)c(C)c2)n(Cc2ccc(C)cc2)c1=O [Compound R-290] | 6 |
| C[C@@H](Cn1c(=O)[nH]/c(=N\c2ccc(N3CCCCC3)c(F)c2)n(Cc2ccc(Cl)cc2)c1=O)C(=O)O [Compound R-146] | 33 |
| CC(C)(Cn1c(=O)[nH]/c(=N\c2ccc(Oc3cccnn3)cc2)n(Cc2ccc(Cl)cc2)c1=O)C(=O)O [Compound R-151] | 11 |
| Cc1cc(/N=c2\[nH]c(=O)n(C[C@H](C)C(=O)O)c(=O)n2Cc2ccc(Cl)s2)ccc1Oc1ncccc1F [Compound I-276] | 19 |
| COc1ccc(Oc2ccc(/N=c3\[nH]c(=O)n([C@@H](C)[C@@H](C)C(=O)O)c(=O)n3Cc3ccc(Cl)cc3)cc2)nn1 [Compound R-191] | 12 |
| CC(C)(C)n1c(=O)[nH]/c(=N\c2ccc(Oc3ccc(-c4cccc(C(=O)O)c4)cn3)cc2)n(Cc2ccc(Cl)cc2)c1=O [Compound R-001] | 7 |
| Cc1ccc(Cn2c(=O)n(C[C@H](C)C(=O)O)c(=O)[nH]/c2=N\c2ccc(Oc3cccc(CF)n3)cc2)cc1 [Compound I-261] | 8 |
| COC(=O)[C@@H](C)Cn1c(=O)[nH]/c(=N\c2ccc(Oc3ccccn3)c(C)c2)n(Cc2ccc(C)cc2)c1=O [Compound I-224] | 6 |
| C[C@@H](Cn1c(=O)[nH]/c(=N\c2ccc(Oc3ncccc3C#N)cc2)n(Cc2ccc(Cl)cc2)c1=O)C(=O)O [Compound I-047] | 22 |
| COC(=O)[C@@H](C)Cn1c(=O)[nH]/c(=N\c2ccc(Oc3cccc(F)n3)cc2)n(Cc2ccc(CF)cc2)c1=O [Compound I-209] | 8 |
| COC(=O)[C@@H](C)Cn1c(=O)[nH]/c(=N\c2ccc(Oc3ccc(C(F)(F)F)cn3)cc2)n(Cc2ccc(C)cc2)c1=O [Compound I-034] | 9 |
| CCOC(=O)CCCn1c(=O)[nH]/c(=N\c2ccc(Oc3ncccc3F)cc2)n(Cc2ccc(C)cc2)c1=O [Compound R-294] | 6 |
| Cc1ccc(Cn2c(=O)n(C[C@H](C)C(=O)O)c(=O)[nH]/c2=N\c2ccc(Oc3ncccc3Cl)cc2)cc1 [Compound I-117] | 5 |
| COC(=O)CCn1c(=O)[nH]/c(=N\c2ccc(Oc3ccccn3)cc2)n(Cc2ccc(Cl)cc2)c1=O [Compound R-225] | 4 |
| COc1ccc(Oc2ccc(/N=c3\[nH]c(=O)n(CC(C)(C)C(=O)O)c(=O)n3Cc3ccc(Cl)cc3)cc2)nc1 [Compound I-093] | 16 |
| COC(=O)[C@@H](C)Cn1c(=O)[nH]/c(=N\c2ccc(Oc3ccccn3)c(F)c2)n(Cc2ccc(Cl)cc2)c1=O [Compound I-205] | 12 |
| COC(=O)[C@@H](C)Cn1c(=O)[nH]/c(=N\c2ccc(Oc3ccc(C(C)=O)cn3)cc2)n(Cc2ccc(C)cc2)c1=O [Compound I-267] | 3 |
| CC(C)(Cn1c(=O)[nH]/c(=N\c2ccc(Oc3ncccn3)c(F)c2)n(Cc2ccc(Cl)cc2)c1=O)C(=O)O [Compound R-165] | 14 |
| COC(=O)[C@@H](C)Cn1c(=O)[nH]/c(=N\c2ccc(Oc3ncccc3F)cc2)n(Cc2ccc(F)cc2F)c1=O [Compound I-024] | 34 |
| O=c1[nH]/c(=N\c2ccc(Oc3ccccn3)cc2)n(Cc2ccc(Cl)cc2)c(=O)n1[C@H]1C[C@H](C(=O)O)C1 [Compound I-174] | 6 |
